Test results taken from patent publication EP4745137A1 (Gluetacs Therapeutics (Shanghai) Co., Ltd., priority 2023, dated 2025).

Tests used:
Assay type in all cases: cell-based
Conditions in all cases: 24 hours of compound treatment
WEE1 = molecular target: T1, WEE1 (Homo sapiens, UniProt P30291+Q96SW2); assay: Western-blot assay of substrate protein degradation in hPBMCs, WEE1
T1 construct: endogenous in cells; host or cells: hPBMCs (Milecell Biotechnologies)

IKZF1 = molecular target: T2, IKZF1 (Homo sapiens, UniProt Q13422+Q96SW2); assay: Western-blot assay of substrate protein degradation in hPBMCs, IKZF1
T2 construct: endogenous in cells; host or cells: hPBMCs (Milecell Biotechnologies)
T2 sequence (Q13422 whole entry): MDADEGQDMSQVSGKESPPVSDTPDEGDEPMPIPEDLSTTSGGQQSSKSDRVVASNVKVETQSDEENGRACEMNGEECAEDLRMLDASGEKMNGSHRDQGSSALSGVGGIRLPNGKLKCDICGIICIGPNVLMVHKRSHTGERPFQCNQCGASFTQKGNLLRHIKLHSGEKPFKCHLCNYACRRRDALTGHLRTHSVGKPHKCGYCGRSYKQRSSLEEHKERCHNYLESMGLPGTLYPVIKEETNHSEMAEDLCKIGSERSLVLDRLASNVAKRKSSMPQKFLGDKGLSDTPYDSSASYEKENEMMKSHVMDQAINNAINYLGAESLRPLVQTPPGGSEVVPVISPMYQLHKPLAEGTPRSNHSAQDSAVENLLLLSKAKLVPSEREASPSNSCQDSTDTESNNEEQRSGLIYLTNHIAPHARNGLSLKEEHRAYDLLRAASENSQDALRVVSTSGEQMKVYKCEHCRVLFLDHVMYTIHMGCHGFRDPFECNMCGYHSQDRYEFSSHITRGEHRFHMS
T2 sequence (Q96SW2 whole entry): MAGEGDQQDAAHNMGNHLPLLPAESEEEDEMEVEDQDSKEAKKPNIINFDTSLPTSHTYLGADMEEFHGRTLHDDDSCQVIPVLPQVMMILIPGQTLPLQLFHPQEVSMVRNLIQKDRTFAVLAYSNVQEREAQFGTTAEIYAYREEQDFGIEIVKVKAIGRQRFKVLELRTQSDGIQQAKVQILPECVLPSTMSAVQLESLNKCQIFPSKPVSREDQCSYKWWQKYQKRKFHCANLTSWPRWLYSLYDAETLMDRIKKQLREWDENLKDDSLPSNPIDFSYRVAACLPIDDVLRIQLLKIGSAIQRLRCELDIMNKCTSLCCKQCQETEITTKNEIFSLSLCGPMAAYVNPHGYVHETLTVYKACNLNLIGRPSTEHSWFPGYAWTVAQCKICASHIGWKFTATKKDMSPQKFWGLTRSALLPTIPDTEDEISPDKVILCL
T2 sequence (Q16531 whole entry partner): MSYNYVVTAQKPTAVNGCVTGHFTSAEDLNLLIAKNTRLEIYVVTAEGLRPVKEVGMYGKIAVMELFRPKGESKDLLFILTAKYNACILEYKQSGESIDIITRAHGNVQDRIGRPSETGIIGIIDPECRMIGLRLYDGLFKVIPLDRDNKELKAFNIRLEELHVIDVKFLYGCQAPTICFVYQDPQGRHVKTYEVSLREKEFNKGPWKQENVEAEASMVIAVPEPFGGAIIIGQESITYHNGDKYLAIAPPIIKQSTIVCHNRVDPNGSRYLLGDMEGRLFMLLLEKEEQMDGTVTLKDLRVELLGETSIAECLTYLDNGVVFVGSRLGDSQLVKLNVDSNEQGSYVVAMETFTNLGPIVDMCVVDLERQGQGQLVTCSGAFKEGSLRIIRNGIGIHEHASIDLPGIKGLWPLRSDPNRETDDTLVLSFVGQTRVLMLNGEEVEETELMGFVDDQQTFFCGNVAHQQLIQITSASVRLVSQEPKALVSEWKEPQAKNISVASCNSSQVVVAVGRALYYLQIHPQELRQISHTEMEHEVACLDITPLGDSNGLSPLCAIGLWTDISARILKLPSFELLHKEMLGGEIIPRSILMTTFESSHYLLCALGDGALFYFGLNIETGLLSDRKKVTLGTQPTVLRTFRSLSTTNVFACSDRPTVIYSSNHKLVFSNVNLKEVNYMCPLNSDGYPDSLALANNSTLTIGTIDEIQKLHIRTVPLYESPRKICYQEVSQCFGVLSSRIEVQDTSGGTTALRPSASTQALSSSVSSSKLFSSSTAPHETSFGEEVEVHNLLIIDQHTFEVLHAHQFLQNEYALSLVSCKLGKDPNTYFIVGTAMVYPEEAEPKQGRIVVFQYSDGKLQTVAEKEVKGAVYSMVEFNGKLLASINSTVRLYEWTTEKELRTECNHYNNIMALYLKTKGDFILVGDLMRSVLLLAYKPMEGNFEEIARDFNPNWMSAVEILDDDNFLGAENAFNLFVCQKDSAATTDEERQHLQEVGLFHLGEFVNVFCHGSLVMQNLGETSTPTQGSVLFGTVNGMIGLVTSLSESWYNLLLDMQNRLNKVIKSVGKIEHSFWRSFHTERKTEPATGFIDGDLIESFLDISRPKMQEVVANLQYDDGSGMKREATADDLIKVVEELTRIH

CK1α = molecular target: T3, CK1α (Homo sapiens, UniProt P48729+Q96SW2); assay: Western-blot assay of substrate protein degradation in hPBMCs, CK1α
T3 construct: endogenous in cells; host or cells: hPBMCs (Milecell Biotechnologies)
T3 sequence (P48729 whole entry): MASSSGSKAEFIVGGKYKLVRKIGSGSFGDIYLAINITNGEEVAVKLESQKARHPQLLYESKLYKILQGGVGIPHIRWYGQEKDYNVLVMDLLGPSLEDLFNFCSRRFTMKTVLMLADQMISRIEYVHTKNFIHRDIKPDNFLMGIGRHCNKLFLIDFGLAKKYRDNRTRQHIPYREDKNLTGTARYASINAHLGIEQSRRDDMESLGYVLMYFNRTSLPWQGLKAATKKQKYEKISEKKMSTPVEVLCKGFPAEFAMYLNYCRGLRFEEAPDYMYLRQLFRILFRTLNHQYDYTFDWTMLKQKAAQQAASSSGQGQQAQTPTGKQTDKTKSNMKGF
T3 sequence (Q96SW2 whole entry): as the sequence (Q96SW2 whole entry) above
T3 sequence (Q16531 whole entry partner): as the sequence (Q16531 whole entry partner) above

IKZF3 = molecular target: T4, IKZF3 (Homo sapiens, UniProt Q96SW2+Q9UKT9); assay: Western-blot assay of substrate protein degradation in hPBMCs, IKZF3
T4 construct: endogenous in cells; host or cells: hPBMCs (Milecell Biotechnologies)
T4 sequence (Q9UKT9 whole entry): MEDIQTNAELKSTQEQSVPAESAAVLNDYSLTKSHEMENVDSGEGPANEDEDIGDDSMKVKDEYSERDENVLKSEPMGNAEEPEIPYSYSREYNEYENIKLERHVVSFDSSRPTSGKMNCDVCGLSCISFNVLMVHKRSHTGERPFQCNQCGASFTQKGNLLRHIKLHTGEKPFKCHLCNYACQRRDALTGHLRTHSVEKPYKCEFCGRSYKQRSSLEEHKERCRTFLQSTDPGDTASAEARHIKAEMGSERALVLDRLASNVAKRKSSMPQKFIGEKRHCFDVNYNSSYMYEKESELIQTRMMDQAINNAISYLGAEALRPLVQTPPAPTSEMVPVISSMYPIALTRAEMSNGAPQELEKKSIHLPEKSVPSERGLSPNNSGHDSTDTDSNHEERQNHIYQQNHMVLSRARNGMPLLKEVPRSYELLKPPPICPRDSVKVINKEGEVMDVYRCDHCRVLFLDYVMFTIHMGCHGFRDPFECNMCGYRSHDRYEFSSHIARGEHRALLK
T4 sequence (Q96SW2 whole entry): as the sequence (Q96SW2 whole entry) above
T4 sequence (Q16531 whole entry partner): as the sequence (Q16531 whole entry partner) above

IKZF2 = molecular target: T5, IKZF2 (Homo sapiens, UniProt Q96SW2+Q9UKS7); assay: Western-blot assay of substrate protein degradation in hPBMCs, IKZF2
T5 construct: endogenous in cells; host or cells: hPBMCs (Milecell Biotechnologies)
T5 sequence (Q9UKS7 whole entry): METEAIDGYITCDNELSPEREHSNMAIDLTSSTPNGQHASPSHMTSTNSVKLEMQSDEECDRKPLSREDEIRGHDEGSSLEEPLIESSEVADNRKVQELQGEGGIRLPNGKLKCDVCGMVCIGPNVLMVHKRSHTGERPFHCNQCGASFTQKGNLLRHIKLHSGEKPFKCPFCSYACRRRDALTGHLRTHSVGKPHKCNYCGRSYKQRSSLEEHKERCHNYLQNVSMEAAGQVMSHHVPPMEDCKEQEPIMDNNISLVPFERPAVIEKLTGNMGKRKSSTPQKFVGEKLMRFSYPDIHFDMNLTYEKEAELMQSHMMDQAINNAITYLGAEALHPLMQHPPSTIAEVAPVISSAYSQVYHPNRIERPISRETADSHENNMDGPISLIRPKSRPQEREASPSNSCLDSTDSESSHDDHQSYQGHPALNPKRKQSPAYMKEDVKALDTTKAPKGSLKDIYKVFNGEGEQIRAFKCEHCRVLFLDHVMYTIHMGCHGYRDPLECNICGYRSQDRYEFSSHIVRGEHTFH
T5 sequence (Q96SW2 whole entry): as the sequence (Q96SW2 whole entry) above
T5 sequence (Q16531 whole entry partner): as the sequence (Q16531 whole entry partner) above

GSPT1 = molecular target: T6, GSPT1 (Homo sapiens, UniProt P15170+Q96SW2); assay: Western-blot assay of substrate protein degradation in hPBMCs, GSPT1
T6 construct: endogenous in cells; host or cells: hPBMCs (Milecell Biotechnologies)

[1] = 50 nM and 500 nM tested (concentration behind the class not stated)
[2] = compounds tested at 50 nM and 500 nM (concentration of the table not stated)

T1 sequence (P30291 whole entry): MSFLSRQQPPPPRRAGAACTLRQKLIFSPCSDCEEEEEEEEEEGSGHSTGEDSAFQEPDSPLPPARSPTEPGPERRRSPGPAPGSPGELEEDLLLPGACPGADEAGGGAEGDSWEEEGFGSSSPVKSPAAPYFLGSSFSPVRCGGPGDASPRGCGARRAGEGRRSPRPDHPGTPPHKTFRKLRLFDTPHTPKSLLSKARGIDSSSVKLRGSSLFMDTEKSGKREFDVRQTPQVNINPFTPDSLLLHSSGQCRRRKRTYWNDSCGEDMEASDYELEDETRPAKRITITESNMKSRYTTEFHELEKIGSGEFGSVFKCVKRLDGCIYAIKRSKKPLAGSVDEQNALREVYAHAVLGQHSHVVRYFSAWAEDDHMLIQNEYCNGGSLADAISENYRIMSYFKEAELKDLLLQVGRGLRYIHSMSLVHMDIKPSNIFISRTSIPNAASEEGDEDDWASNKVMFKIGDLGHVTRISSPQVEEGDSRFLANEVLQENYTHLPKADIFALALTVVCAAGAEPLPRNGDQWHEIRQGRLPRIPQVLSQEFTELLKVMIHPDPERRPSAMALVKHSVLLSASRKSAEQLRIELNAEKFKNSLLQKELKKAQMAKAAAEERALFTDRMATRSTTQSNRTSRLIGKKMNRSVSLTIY
T1 sequence (Q96SW2 whole entry): as the sequence (Q96SW2 whole entry) above
T1 sequence (Q16531 whole entry partner): as the sequence (Q16531 whole entry partner) above

SMILES | Weel substrate protein remaining % (WEE1; [1]) | IKZF 1 substrate protein remaining % (IKZF1; [1]) | CK1a substrate protein remaining % (CK1α; [1]) | IKZF3 substrate protein remaining % (IKZF3; [1]) | IKZF2 substrate protein remaining % (IKZF2; [1]) | GSPT1 substrate protein remaining % (GSPT1; [1]) | Weel substrate protein remaining % (WEE1; [2]) | IKZF 1 substrate protein remaining % (IKZF1; [2]) | CK1a substrate protein remaining % (CK1α; [2]) | IKZF3 substrate protein remaining % (IKZF3; [2]) | IKZF2 substrate protein remaining % (IKZF2; [2]) | GSPT1 substrate protein remaining % (GSPT1; [2])
O=C1CCC(N2C(=O)c3ccc(CN4CCc5sccc5C4)cc3C2=O)C(=O)N1 (stereo not drawn) [GT-06762, 5-((6,7-dihydrothieno[3,2-c]pyridin-5(4H)-yl)methyl)-2-(2,6-dioxopiperidin-3-yl)isoindoline-1,3-dione] | A (0% ≤ substrate protein remaining % ≤ 80%) | A (0% ≤ substrate protein remaining % ≤ 80%) | A (0% ≤ substrate protein remaining % ≤ 80%) | B (80%< substrate protein remaining %≤ 100%) | B (80%< substrate protein remaining %≤ 100%) | B (80%< substrate protein remaining %≤ 100%) |  |  |  |  |  | 
O=C1CCC(N2C(=O)c3ccc(CN4CCN(c5noc6ccncc56)CC4)cc3C2=O)C(=O)N1 (stereo not drawn) [GT-06630, 2-(2,6-dioxopiperidin-3-yl)-5-((4-(isoxazolo[4,5-c]pyridin-3-yl)piperazin-1-yl)methyl)isoindoline-1,3-dione] | A (0% ≤ substrate protein remaining % ≤ 80%) | B (80%< substrate protein remaining %≤ 100%) | A (0% ≤ substrate protein remaining % ≤ 80%) | B (80%< substrate protein remaining %≤ 100%) | A (0% ≤ substrate protein remaining % ≤ 80%) | A (0% ≤ substrate protein remaining % ≤ 80%) |  |  |  |  |  | 
O=C1CCC(N2C(=O)c3ccc(CN4CCC(c5cccc6c(F)cccc56)CC4)cc3C2=O)C(=O)N1 (stereo not drawn) [GT-06263, 2-(2,6-dioxopiperidin-3-yl)-5-((4-(5-fluoronaphthalen-1-yl)piperidin-1-yl)methyl)isoindoline-1,3-dione] |  |  |  |  |  |  | B (80%< substrate protein remaining %≤ 100%) | B (80%< substrate protein remaining %≤ 100%) | A (0% ≤ substrate protein remaining % ≤ 80%) | A (0% ≤ substrate protein remaining % ≤ 80%) | B (80%< substrate protein remaining %≤ 100%) | A (0% ≤ substrate protein remaining % ≤ 80%)
O=C1CCC(N2C(=O)c3ccc(CN4C[C@H]5C[C@@H]4CN5c4cccc(Cl)c4Cl)cc3C2=O)C(=O)N1 (stereo partly drawn) [GT-06690, 5-(((1R,4R)-5-(2,3-dichlorophenyl)-2,5-diazabicyclo[2.2.1]heptan-2-yl)methyl)-2-(2,6-dioxopiperidin-3-yl)isoindoline-1,3-dione] | B (80%< substrate protein remaining %≤ 100%) | B (80%< substrate protein remaining %≤ 100%) | B (80%< substrate protein remaining %≤ 100%) | A (0% ≤ substrate protein remaining % ≤ 80%) | B (80%< substrate protein remaining %≤ 100%) | A (0% ≤ substrate protein remaining % ≤ 80%) |  |  |  |  |  | 
O=C1CCC(N2C(=O)c3ccc(CN4CCN(c5ccc(C(F)(F)F)cn5)CC4)cc3C2=O)C(=O)N1 (stereo not drawn) [GT-06531, 2-(2,6-dioxopiperidin-3-yl)-5-((4-(5-(trifluoromethyl)pyridin-2-yl)piperazin-1-yl)methyl)isoindoline-1,3-dione] | B (80%< substrate protein remaining %≤ 100%) | B (80%< substrate protein remaining %≤ 100%) | B (80%< substrate protein remaining %≤ 100%) | B (80%< substrate protein remaining %≤ 100%) | B (80%< substrate protein remaining %≤ 100%) | A (0% ≤ substrate protein remaining % ≤ 80%) |  |  |  |  |  | 
